The results in this text go back to patent EP4714948A1, “COMPOUND USED FOR EGFR PROTEIN DEGRADATION, AND USE THEREOF” (TYK Medicines, Inc., priority 2023, dated 2024).

SMILES strings stand for the structures. A value given as a limit tells only on which side of the number the result lay.

One data set has as its system H1975. Kind of data set: Cell antiproliferative assay (CTG, 72 h). The class given is cell-based. Conditions: Homo sapiens, NCI-H1975, H1975 (EGFR T790M/L858R). The procedure: (§1) H1975 has EGFR T790M/L858R dual mutation, PC-9 has EGFR exon 19 deletion mutation, and HCC827 has exon 19 deletion mutation. CellCounting Lite 2.0, Trypsin EDTA, 37 °C CO2 incubator, cell counter, EnVision Serial No.1050454.
(§2) • (A) Trypsin EDTA was used to digest log-phase cells, medium was added to terminate the digestion reaction, and a cell suspension was prepared by blowing and mixing with a pipette. • (B) Cell concentration was determined using Vi-cell, and a suspension of 15,000-25,000 cells per milliliter was made depending on the purpose of the experiment and the characteristics of the cells. • (C) After the cell suspension was ready, it was gently mixed and each well was added with 100µL so that the cell density to be tested was 1,500- 2,500 per well.
(§3) • A) About 2 mg of compound was weighed, and the volume of DMSO required was calculated according to the formula: compound mass (mg)*compound purity (%)/compound molecular weight*1000. • (B) The inoculated cell culture plates were incubated in an incubator. About 24 hours later, compounds were added at gradient concentrations. • (C) 10mM of compound reservoir solution was diluted to […] with medium, and […] of the compound solution was added sequentially to the second column of the deep-well plate, and […] of medium containing 0.5% DMSO was added to the third to eleventh columns. • D) Gradient dilution: 125 µl of solution was pipetted from the second column and added to the third column, after mixing; another 125 µl of solution was pipetted from the third column and added to the fourth column, and the operation was repeated until the tenth column. • (E) 25 µl of compound was pipetted from the deep-well plate into a 96-well culture plate using a multichannel pipette, and each compound was run in triplicate on the 96-well plate. A 1:4 concentration gradient was established on the 96-well plate, with a final highest concentration of 10,000 nM.
(§4) • (A) 96-well plates were incubated in an incubator for 72 h. The effect of the compounds was observed under an inverted microscope. • (B) 25 µl of CTG solution was added to each well. The plate was incubated on a shaker for 10 minutes and the OD value of each well was read.
(§5) The survival rate ( % Cell Viability) was calculated using the following formula: %Cell Viability = 100% × (Lum_Sample−Lum_LC)/(Lum_HC−Lum_LC) [formula] • Lum_HC: Cell reading of 0.1% DMSO control group • Lum_Sample: Cell readings of compound addition group • Lum_LC: Reading of blank medium • IC50 values were obtained by curve fitting using GraphPad Prism 8 software.

A further data set has as its system HCC827. Kind of data set: Cell antiproliferative assay (CTG, 72 h). The class given is cell-based. Conditions: Homo sapiens, HCC827 (exon 19 deletion). The procedure: as §1, §2, §3, §4, §5
In another data set the test system is PC-9. The experiment in a line: Cell antiproliferative assay (CTG, 72 h). The note with it: Homo sapiens, PC-9 (EGFR exon 19 deletion). The format is cell-based. The procedure:
as §1, §2, §3, §4, §5

Data set [1] has as its target EGFR in BAF3-LTC (Baf3-L858R-T780M-C797S) (Homo sapiens, UniProt P00533, C797S/L858R/T790M). Kind of data set: EGFR PROTAC HTRF experiment (total EGFR degradation). The class given is cell-based. The note with it: BAF3-LTC cells, 16 hours incubation. For orientation: TR-FRET usually uses a lanthanide donor and a delayed reading to cut background.
Data set [2] addresses EGFR in BAF3-DTC (Baf3-19del-T780M-C797S) (Homo sapiens, UniProt P00533, C797S/DEL746-750/T790M). The data set is described as above. The note with it: BAF3-DTC cells, 16 hours incubation. The format is cell-based.
Data set [3] is described as follows: Pharmacokinetic test on male SD rats. The format is in vivo. Conditions: gavage (p.o.), 10 mg/kg, plasma; for AUC(0-inf) / AUC(0-t) / Cmax / MRT last / Tmax: rat, po. The procedure:
Healthy adult SD rats, male, a total of 3, 6-8 weeks old; Weighing 200-300 grams.
EDTA-Na2 anticoagulant: 11.2 g of EDTA-Na2 was weighted and placed into a reagent bottle. 100 mL of physiological saline was added and the mixture was shaken until completely dissolved. After preparation, the solution was aliquoted into 1.5 mL centrifuge tubes, each containing approximately 20 uL, for use in whole blood sample collection.
Approximately 10 mg of the test sample was accurately weighed. DMSO accounting for 10% of the total volume was added to dissolve the sample. Subsequently, 0.5% MC solvent accounting for 90% of the total volume was slowly added while stirring. The mixture was sonicated and vortexed evenly, and a visually homogeneous preparation solution was obtained, with a concentration of 1 mg/mL. This solution should be freshly prepared immediately before use.
0.2 mL of the sample was pipetted into a 1.5 mL centrifuge tube and stored at -80°C for concentration analysis of the dosing solution.
Animals were kept in rat cages and fasted for no less than 10 hours on the day before the experiment, but were allowed to drink water. The animals were individually weighed and marked on their tails. Prior to dosing, blank blood samples were collected from each animal via the tail vein.
• Administration route: gavage (p.o.) • Dosage concentration: 1mg/ml • Dosage: 10 mg/kg • Dosage volume: 10 mL/kg
Operation process: The rat was grasped with a left hand protected by a bite-resistant glove and held in an upright position. The gavage needle was inserted through the mouth and advanced towards the pharynx. The needle was advanced gently, ensuring no significant resistance was felt. The drug was then injected into the stomach.
At 0.5 h, 1 h, 2 h, 4 h, 6 h, 8 h, 12 h, and 24 h post-dosing, 0.1-0.2 mL of whole blood was collected from each test animal into EDTA-Na2 anticoagulant tubes. The tubes were mixed by inverting 3-4 times. The samples were centrifuged at 2000 × g and 4 °C for 5 minutes. The upper plasma layer was to separated, promptly transferred to -80 °C for storage until analysis. The blood was collected via tail vein.
A quantitative detection method for the test compound was established using a Shimadzu liquid chromatography system and a Triple Quad™ 6500+ AB mass spectrometry (MS) system. This method was used to analyze the concentration of the parent drug in plasma. The variation of the analysis results was controlled using quality control (QC) samples, and the accuracy of the QC samples was required to be within the range of 80%-120%.
The main pharmacokinetic parameters were calculated using the non-compartmental model (NCA) with the WinNonlin Phoenix software. These parameters include: area under the concentration-time curve (AUC(0-t) and AUC(0-∞)), elimination half-life (T1/2), maximum plasma concentration (Cmax), and time to reach maximum plasma concentration (Tmax), etc.

Sequence of EGFR in BAF3-DTC (Baf3-19del-T780M-C797S) (P00533 with tags, fused parts or gaps DEL746-750/T790M/C797S): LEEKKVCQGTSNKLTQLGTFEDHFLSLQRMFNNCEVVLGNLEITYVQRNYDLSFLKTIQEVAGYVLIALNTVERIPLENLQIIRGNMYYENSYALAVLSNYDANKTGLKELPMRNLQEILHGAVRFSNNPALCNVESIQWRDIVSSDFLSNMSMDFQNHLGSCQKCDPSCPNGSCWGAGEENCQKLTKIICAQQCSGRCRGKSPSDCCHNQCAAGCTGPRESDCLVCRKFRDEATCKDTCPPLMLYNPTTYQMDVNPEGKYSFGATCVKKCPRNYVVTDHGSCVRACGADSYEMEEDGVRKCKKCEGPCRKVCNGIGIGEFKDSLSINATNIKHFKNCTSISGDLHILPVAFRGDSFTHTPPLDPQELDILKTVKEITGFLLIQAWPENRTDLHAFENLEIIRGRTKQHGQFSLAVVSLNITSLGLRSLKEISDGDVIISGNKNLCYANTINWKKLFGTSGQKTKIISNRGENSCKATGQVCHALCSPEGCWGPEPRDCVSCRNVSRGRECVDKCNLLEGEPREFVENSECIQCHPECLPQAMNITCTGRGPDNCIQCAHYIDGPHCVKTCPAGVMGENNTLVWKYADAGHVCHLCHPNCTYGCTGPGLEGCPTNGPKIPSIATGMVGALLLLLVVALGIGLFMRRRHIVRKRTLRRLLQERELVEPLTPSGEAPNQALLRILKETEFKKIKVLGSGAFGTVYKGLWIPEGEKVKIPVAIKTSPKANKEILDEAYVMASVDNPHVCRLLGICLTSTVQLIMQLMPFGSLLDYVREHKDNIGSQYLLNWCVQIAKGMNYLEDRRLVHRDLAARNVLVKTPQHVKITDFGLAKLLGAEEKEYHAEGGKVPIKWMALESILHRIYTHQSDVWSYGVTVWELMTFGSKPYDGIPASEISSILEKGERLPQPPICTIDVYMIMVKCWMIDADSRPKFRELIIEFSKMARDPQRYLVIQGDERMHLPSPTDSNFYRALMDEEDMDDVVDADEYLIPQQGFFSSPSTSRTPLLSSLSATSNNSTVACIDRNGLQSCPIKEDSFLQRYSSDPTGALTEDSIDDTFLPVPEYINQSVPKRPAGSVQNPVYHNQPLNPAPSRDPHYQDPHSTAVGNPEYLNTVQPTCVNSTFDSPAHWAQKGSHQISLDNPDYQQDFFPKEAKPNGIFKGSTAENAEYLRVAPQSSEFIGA
Sequence of EGFR in BAF3-LTC (Baf3-L858R-T780M-C797S) (P00533 25-1210 T790M/C797S/L858R): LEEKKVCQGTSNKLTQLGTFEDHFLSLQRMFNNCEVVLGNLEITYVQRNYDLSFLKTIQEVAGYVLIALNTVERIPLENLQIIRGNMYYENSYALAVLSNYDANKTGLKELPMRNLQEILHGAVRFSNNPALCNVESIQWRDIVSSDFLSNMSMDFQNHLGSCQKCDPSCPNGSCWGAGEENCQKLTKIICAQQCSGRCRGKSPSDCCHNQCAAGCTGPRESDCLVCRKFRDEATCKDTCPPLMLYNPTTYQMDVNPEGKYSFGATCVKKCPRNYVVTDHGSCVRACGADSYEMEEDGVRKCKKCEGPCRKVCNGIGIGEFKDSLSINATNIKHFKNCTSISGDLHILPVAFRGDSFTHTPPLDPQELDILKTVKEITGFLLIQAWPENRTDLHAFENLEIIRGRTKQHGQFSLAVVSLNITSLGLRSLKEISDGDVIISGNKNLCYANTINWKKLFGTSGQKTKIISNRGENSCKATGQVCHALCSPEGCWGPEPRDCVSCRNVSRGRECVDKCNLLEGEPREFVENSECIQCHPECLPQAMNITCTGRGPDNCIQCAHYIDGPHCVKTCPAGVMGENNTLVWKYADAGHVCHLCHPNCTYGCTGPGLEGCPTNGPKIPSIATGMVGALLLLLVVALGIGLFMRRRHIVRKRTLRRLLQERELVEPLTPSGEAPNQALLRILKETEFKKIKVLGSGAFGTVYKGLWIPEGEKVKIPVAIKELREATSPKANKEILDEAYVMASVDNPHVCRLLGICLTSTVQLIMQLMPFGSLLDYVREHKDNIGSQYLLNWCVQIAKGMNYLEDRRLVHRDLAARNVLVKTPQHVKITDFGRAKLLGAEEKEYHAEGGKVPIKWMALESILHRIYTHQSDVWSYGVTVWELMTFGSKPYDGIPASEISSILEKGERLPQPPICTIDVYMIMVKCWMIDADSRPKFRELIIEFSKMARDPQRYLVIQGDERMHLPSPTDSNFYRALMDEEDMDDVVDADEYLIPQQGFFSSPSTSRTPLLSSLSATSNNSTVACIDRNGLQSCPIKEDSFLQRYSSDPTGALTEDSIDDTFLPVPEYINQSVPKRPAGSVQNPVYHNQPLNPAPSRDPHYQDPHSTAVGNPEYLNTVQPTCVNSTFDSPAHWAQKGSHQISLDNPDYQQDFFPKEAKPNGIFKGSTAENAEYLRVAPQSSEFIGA

`C=Cc1cc(Nc2ncc(Cl)c(Nc3ccccc3C(=O)NC)n2)c(OC)cc1N1CCN(C(=O)CN2CCC(c3ccc(NC4CCC(=O)NC4=O)cc3)CC2)CC1` (centres unmarked) [Compound T-003]: the IC50 was 10 to 100 nM in the data set on H1975, 10 to 100 nM in the data set with HCC827 and 100 to 1000 nM in the data set with PC-9. Besides, the DC50 in data set [1] and in data set [2] was 10 to 100 nM each time. The Dmax in data set [1] and in data set [2] was 70 to 100% throughout.
Regarding `CNC(=O)c1ccccc1Nc1nc(Nc2cc(C)c(N3CCN(CCN4CCC(c5ccc(NC6CCC(=O)NC6=O)cc5)CC4)CC3)cc2OC)ncc1Cl` (centres unmarked) [Compound T-021], the IC50 in the data set with H1975 is under 10 nM; in the data set with HCC827 it was 10 to 100 nM; in the data set on PC-9, 100 to 1000 nM. In addition, the DC50 in data set [1] and in data set [2] was 100 to 1000 nM each time. For the same compound, the Dmax in data set [1] and in data set [2] was 70 to 100% throughout.
Take `CCc1cc(Nc2ncc(Cl)c(Nc3ccccc3C(=O)NC)n2)c(OC)cc1N1CCN(CCN2CCC(c3ccc(NC4CCC(=O)NC4=O)cc3)CC2)CC1` (centres unmarked) [Compound T-023]: the IC50 with H1975 was under 10 nM. The compound further had an IC50 in the data set with HCC827 of 10 to 100 nM. For the same compound, in the data set with PC-9, the IC50 fell in the range of 100 to 1000 nM. In data set [1], this compound came in with a DC50 of 10 to 100 nM and a Dmax of 70 to 100%. In data set [2], this compound gave a 50% degradation concentration (DC50) of 10 to 100 nM and a Dmax of 70 to 100%. Moreover, in data set [3], the HL_ is reported as 9.28 h, the AUC(0-inf) was found to be 76300 ng·h/mL, the AUC(0-t) was found to be 61600 ng·h/mL and the Cmax came out at 4060 ng/mL. In addition, in data set [3], the mean residence time (MRT last) is 10 h and the Tmax was 6 h.
For the compound `CCc1cc(Nc2ncc(Cl)c(Nc3ccccc3C(=O)NC)n2)c(OC)cc1N1CCN(C(=O)CN2CCN(c3ccc(NC4CCC(=O)NC4=O)cc3F)CC2)CC1` (centres unmarked) [Compound T-029], the IC50 with H1975 fell in the range of 10 to 100 nM. In the data set on HCC827, this compound showed an IC50 of 100 to 1000 nM. The compound further came in with an IC50 with PC-9 of 100 to 1000 nM. Further, in data set [1], the DC50 was 100 to 1000 nM and the Dmax fell in the range of 70 to 100%. In data set [2], this compound returned a DC50 of 10 to 100 nM and a Dmax of 50 to 70%. In data set [3], the HL_ came out at 2.51 h, the AUC(0-inf) stood at 8210 ng·h/mL, the AUC(0-t) came to 7900 ng·h/mL and the peak level (Cmax) was 1010 ng/mL. Moreover, in data set [3], the MRT last is 5.65 h and the Tmax came out at 4.67 h.
With `CCc1cc(Nc2ncc(Cl)c(Nc3ccccc3C(=O)NC)n2)c(OC)cc1N1CCN(C(=O)CC2(O)CCN(c3ccc(NC4CCC(=O)NC4=O)cc3F)CC2)CC1` (centres unmarked) [Compound T-037], the IC50 with H1975 was 10 to 100 nM. The compound also had an IC50 with HCC827 of 100 to 1000 nM. Also, the IC50 with PC-9 was 100 to 1000 nM. Besides, in data set [1], the DC50 is 100 to 1000 nM and the Dmax was 50 to 70%. Also, in data set [2], the DC50 was 100 to 1000 nM and the Dmax is 50 to 70%. Moreover, in data set [3], the HL_ turned out to be 2.61 h, the AUC(0-inf) was 24400 ng·h/mL, the AUC(0-t) came to 24000 ng·h/mL and the highest level (Cmax) was 2290 ng/mL. In addition, in data set [3], the mean residence time MRT last is 7.49 h and the Tmax was found to be 2.67 h.
As to `CCc1cc(Nc2ncc(Cl)c(Nc3ccccc3C(=O)NC)n2)c(OC)cc1N1CCN(C(=O)CN2CCC(c3ccc(NC4CCC(=O)NC4=O)cc3F)CC2)CC1` (centres unmarked) [Compound T-067], in the data set on H1975, the IC50 was under 10 nM. In addition, in the data set with HCC827, the IC50 fell in the range of 100 to 1000 nM. Moreover, the IC50 in the data set with PC-9 lay within 100 to 1000 nM. In data set [1], this compound came in with a DC50 of 10 to 100 nM and a Dmax of 70 to 100%. Besides, in data set [2], the DC50 lay in the range of 10 to 100 nM and the Dmax was in the range of 70 to 100%. Moreover, in data set [3], the HL_ came to 4.39 h, the total exposure AUC(0-inf) turned out to be 11300 ng·h/mL, the AUC(0-t) was found to be 11000 ng·h/mL and the Cmax is 1020 ng/mL. In data set [3], the MRT last is 7.78 h and the Tmax was 4 h.
As to `CCc1cc(Nc2ncc(Cl)c(Nc3ccccc3C(=O)NC)n2)c(OC)cc1N1CC2(CN(C(=O)CN3CCC(c4ccc(NC5CCC(=O)NC5=O)cc4)CC3)C2)C1` (centres unmarked) [Compound T-080], the IC50 is under 10 nM with H1975, 10 to 100 nM with HCC827 and 10 to 100 nM in the data set with PC-9. In addition, the DC50 in data set [1] and in data set [2] was 10 to 100 nM each time. For the same compound, the Dmax in data set [1] and in data set [2] was 70 to 100% throughout.
Take `CCc1cc(Nc2ncc(Cl)c(Nc3ccccc3C(=O)NC)n2)c(OC)cc1N1CC2CCC(C1)N2C(=O)CN1CCC(c2ccc(NC3CCC(=O)NC3=O)cc2)CC1` (centres unmarked) [Compound T-109]: the IC50 in the data set on H1975, in the data set on HCC827 and in the data set with PC-9 was 10 to 100 nM throughout. Further, the DC50 in data set [1] and in data set [2] was 10 to 100 nM each time. Besides, the Dmax in data set [1] and in data set [2] was 50 to 70% throughout.

For orientation: IC50 means the midpoint of a concentration-inhibition curve. Low values mean higher potency, high ones lower potency. In general, DC50 refers to the concentration giving 50% degradation. The low end stands for degradation at low concentration, the high end for degradation only at high concentration. The term Dmax denotes the greatest extent of degradation seen. Low readings indicate shallow degradation, high ones deep degradation. A word on the AUC(0-inf): it is total exposure, with the tail of the curve extrapolated. Usually AUC(0-t) stands for the area under the concentration-time curve up to a stated or last time point. Low values mean low exposure, high ones high exposure. Broadly, the Cmax is the peak of the concentration-time curve. The MRT last is the average time that molecules of a dose stay in the body. What is called Tmax is the time from dosing to the highest level.
